# Literature values, collected in PMC9610285 (Pharmaceutics, 2022).
# Settings: cited from earlier work
compound,measurement,setting,value
"C#CCN[C@@H]1CCc2ccccc21 [rasagiline, Rasagiline]",capacity to cross the blood-brain barrier,,high capacity to cross the blood-brain barrier
same,elimination half-life (t1/2),,36 to 120 min
same,oral bioavailability,,36%
same,plasma protein binding,,60–70%
same,urine elimination,,62.6%
same,tmax (time to reach Cmax),oral tablet,approximately 0.5 h
